# Measurements: the supplement of paper PMC10307832
# Assays:
# Experiment in all cases: relative viability (nuclei count vs DMSO), 5 days (fraction); higher = more cells survive
# AT-7519 + Bortezomib = compound: O=C(NC1CCNCC1)c1n[nH]cc1NC(=O)c1c(Cl)cccc1Cl [AT-7519] + CC(C)C[C@H](NC(=O)[C@H](Cc1ccccc1)NC(=O)c1cnccn1)B(O)O [Bortezomib] (partner 0.002 µM)
# How it was run: (§1)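 Lung cancer cell lines were seeded in 1536-well plates and dosed by pin tool the next day, with either a single drug or a fixed anchor-drug dose combined with five library-drug doses (not always all listed) spaced in √10 steps. Five days later, one step fixed the cells and stained their nuclei (final 0.05% Triton X-100, 1% formaldehyde, 1 ug/ml Hoechst), and nuclei were counted on 4× images. Relative viability is the nuclei count in treated wells divided by the count in vehicle wells, and each value is the median of duplicate plates.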
# AT-7519 + Linsitinib = compound: O=C(NC1CCNCC1)c1n[nH]cc1NC(=O)c1c(Cl)cccc1Cl [AT-7519] + C[C@]1(O)C[C@@H](c2nc(-c3ccc4ccc(-c5ccccc5)nc4c3)c3c(N)nccn32)C1 [Linsitinib] (partner 1 µM)
# How it was run: as §1
# [1] = compound: C1=CC2=C(C=C(C(=C2N=C1)O)N=NC3=CC4=C(C=C3)C=C(C=C4)S(=O)(=O)O)S(=O)(=O)O + O=C(c1cc(Cc2n[nH]c(=O)c3ccccc23)ccc1F)N1CCN(C(=O)C2CC2)CC1 [Olaparib] (partner 8 µM)
# How it was run: as §1
# [2] = compound: C1=CC2=C(C=C(C(=C2N=C1)O)N=NC3=CC4=C(C=C3)C=C(C=C4)S(=O)(=O)O)S(=O)(=O)O + Cc1nc(NC(=O)N2CCC[C@H]2C(N)=O)sc1-c1ccnc(C(C)(C)C(F)(F)F)c1 [Alpelisib] (partner 2 µM)
# How it was run: as §1
Cell Line,relative viability (AT-7519 + Bortezomib; first compound 0.01 µM),relative viability (AT-7519 + Bortezomib; first compound 0.03162 µM),relative viability (AT-7519 + Bortezomib; first compound 0.3162 µM),relative viability (AT-7519 + Bortezomib; first compound 1 µM),relative viability (AT-7519 + Linsitinib; first compound 0.01 µM),relative viability (AT-7519 + Linsitinib; first compound 0.03162 µM),relative viability (AT-7519 + Linsitinib; first compound 0.3162 µM),relative viability (AT-7519 + Linsitinib; first compound 1 µM),relative viability ([1]; first compound 0.08 µM),relative viability ([1]; first compound 0.253 µM),relative viability ([1]; first compound 0.8 µM),relative viability ([1]; first compound 2.53 µM),relative viability ([1]; first compound 8 µM),relative viability ([2]; first compound 0.08 µM),relative viability ([2]; first compound 0.253 µM),relative viability ([2]; first compound 0.8 µM),relative viability ([2]; first compound 2.53 µM),relative viability ([2]; first compound 8 µM)
ABC-1,0.291,0.337,0.259,0.231,0.784,0.715,0.788,0.243,0.634,0.762,0.754,0.684,0.916,1.14,0.967,1.03,0.869,1.22
NCI-H522,–,–,–,–,–,–,–,–,0.601,0.625,0.564,0.561,0.708,–,–,–,–,–
NCI-H838,0.644,0.804,0.416,0.0826,1.03,1.01,0.74,0.149,0.781,0.739,0.743,0.777,0.77,1.22,0.959,1.05,1.05,0.97
SW 900,–,–,–,–,–,–,–,–,1.1,0.826,0.75,0.878,0.757,–,–,–,–,–
A549,–,–,–,–,0.658,0.552,0.629,0.39,0.469,0.331,0.299,0.313,0.135,0.733,0.708,0.665,0.728,0.662
A-427,1.02,0.961,1.04,0.792,1.13,1.12,1.13,0.81,0.727,0.763,0.709,0.825,0.736,1.19,1.07,1.09,1.08,1.17
NCI-H1792,0.752,0.89,0.882,0.888,0.291,0.358,0.441,0.444,0.579,0.253,0.355,0.507,0.432,0.861,0.639,0.66,0.715,0.743
LCLC-97TM1,1.22,0.58,0.379,0.123,0.189,0.155,0.17,0.151,0.41,0.38,0.432,0.338,0.32,–,0.296,–,0.248,0.296
NCI-H1703,0.392,0.323,0.182,0.151,0.854,0.835,0.379,0.149,0.3,–,0.339,0.475,0.41,0.369,0.266,0.39,0.385,0.409
LCLC-103H,1.01,1.05,1.07,1.2,0.955,1.04,1.1,1.13,0.774,0.721,0.735,0.779,0.753,1,0.948,0.945,0.899,1.14
PC-3 [JPC-3],0.947,0.863,0.86,0.848,0.957,0.974,1.04,1.02,1.31,1.15,1.17,1.14,1.09,1.11,1.02,0.971,1.04,0.998
